Legend:
Cannabinoid receptor 1 = Cannabinoid receptor 1 (Homo sapiens, UniProt P21554); experiment: Displacement of [3H]CP 55940 from human CB1 receptor in cell free system
Cannabinoid receptor 2 = Cannabinoid receptor 2 (Homo sapiens, UniProt P34972); experiment: Displacement of [3H]CP 55940 from human CB2 receptor in cell free system; conditions: read-out: Ki
Homo sapiens = species: Homo sapiens; experiment: Selectivity ratio of Ki for human CB1 to Ki for human CB2

Cannabinoid receptor 1, sequence (P21554 whole entry): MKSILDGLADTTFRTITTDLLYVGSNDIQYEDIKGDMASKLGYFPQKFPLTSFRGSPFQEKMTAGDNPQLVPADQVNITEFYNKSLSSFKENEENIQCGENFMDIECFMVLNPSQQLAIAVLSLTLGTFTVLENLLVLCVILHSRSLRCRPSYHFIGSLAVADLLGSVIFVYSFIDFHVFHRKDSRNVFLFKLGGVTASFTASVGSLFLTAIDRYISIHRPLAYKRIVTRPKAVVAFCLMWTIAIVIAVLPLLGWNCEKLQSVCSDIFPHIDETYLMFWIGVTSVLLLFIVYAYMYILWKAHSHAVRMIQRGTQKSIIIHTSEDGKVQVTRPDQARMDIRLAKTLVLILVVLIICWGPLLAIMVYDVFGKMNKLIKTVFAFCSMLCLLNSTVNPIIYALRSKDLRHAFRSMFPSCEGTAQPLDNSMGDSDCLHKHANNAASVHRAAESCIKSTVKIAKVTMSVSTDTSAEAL
Cannabinoid receptor 2, sequence (P34972 whole entry): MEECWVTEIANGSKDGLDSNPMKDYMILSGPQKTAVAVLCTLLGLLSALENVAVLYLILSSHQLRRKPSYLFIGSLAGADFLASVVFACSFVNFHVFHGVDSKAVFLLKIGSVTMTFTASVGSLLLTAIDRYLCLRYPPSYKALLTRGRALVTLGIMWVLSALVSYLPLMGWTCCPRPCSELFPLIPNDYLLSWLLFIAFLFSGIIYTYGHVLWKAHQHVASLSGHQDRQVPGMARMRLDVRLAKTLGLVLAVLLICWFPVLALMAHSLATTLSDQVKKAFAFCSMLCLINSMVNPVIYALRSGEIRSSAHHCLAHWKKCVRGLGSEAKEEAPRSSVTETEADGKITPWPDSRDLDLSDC

Row | Compound | Ki (Cannabinoid receptor 1) | Ki (Cannabinoid receptor 2) | log(ratioKi) (Homo sapiens)
1 | CC1=CC[C@@H]2[C@@H](C1)c1c(O)cc(C(C)(C)c3cccs3)cc1OC2(C)C | 12.3 nM | 0.91 nM | 1.13
2 | C=C1CC[C@@H]2[C@@H](C1)c1c(OC)cc(C(C)(C)CCCCCC)cc1OC2(C)C | 4890 nM | 11.8 nM | 2.26
3 | CCC(C)(C)C(=O)Cc1cc(C)c(C)c(S(=O)(=O)N2CCCCCC2)c1 | 1800 nM | 9 nM | 2.3
4 | CCCCCCn1cc(C(=O)NC2CCCCC2)c(=O)c2ccc(C)nc21 | 95 nM | 8 nM | 1.07
5 | Cc1ccc2c(=O)c(C(=O)NC3CCCC3)cn(CCN3CCOCC3)c2n1 | 1000 nM | 50 nM | 1.3
6 | CCC1CCC(C(=O)c2cn(CCN3CCOCC3)c3ccccc23)CC1 (stereo not given) | 616 nM | 16 nM | 1.58
7 | CC1(C)C(C(=O)c2cn(CC3CCOCC3)c3c(COc4ccccc4)cccc23)C1(C)C | 28 nM | 3 nM | 0.98
8 | Cc1ccc2c(c1)Cc1c(C(=O)NN3CCCCC3)nn(-c3ccc(Cl)cc3Cl)c1-2 | 363 nM | 0.04 nM | 3.95
9 | Cc1c(C(C)(C)C)s/c(=N\S(=O)(=O)c2cccc3ccccc23)n1C1CC1 | 1700 nM | 16 nM | 2.02
10 | CCCCCn1c(C)c(C(=O)c2ccc(CCC)c3ccccc23)c2ccccc21 | 1.3 nM | 0.6 nM | 0.32
